Results as given in patent US11524966B1 (Valo Early Discovery, Inc., priority 2017, dated 2022).

Target: T1, USP25 (USP25-His6, Boston Biochem E-546) (Homo sapiens, UniProt Q9UHP3)
T1 construct: His6; purchased Boston Biochem E-546
T1 sequence (Q9UHP3 1-1055): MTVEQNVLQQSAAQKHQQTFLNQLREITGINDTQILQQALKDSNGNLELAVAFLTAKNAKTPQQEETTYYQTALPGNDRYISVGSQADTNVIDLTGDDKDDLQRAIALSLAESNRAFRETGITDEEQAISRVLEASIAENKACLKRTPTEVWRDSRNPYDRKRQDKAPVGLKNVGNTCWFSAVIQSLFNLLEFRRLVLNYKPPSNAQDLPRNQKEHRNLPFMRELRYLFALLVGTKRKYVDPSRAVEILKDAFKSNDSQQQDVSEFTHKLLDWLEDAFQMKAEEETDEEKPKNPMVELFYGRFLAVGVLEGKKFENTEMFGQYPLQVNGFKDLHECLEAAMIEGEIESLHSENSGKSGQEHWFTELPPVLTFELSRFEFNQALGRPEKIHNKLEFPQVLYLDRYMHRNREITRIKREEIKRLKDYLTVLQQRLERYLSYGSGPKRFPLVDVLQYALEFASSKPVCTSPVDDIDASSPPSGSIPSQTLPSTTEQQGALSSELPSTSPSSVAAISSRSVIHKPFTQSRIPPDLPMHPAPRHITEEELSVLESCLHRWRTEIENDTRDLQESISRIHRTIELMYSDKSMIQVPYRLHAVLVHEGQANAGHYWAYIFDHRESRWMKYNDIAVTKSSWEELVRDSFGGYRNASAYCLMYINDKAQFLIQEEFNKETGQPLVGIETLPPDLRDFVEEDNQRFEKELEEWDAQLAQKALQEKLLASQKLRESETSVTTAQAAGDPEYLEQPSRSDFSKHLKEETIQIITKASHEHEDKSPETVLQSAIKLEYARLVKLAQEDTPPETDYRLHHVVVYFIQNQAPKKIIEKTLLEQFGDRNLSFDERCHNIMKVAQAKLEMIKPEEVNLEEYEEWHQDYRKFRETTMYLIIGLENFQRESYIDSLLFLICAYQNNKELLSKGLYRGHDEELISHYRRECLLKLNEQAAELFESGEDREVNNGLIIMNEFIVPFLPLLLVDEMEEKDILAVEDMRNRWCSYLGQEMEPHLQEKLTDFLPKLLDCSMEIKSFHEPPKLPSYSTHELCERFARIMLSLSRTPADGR
Assay: Ubiquitin-Rhodamine 110 Assay for USP25 Activity, Example A-2
Format: biochemical
Conditions: Ubiquitin-Rhodamine 110 assay, Example A-2; read-out: USP25 A-2 IC50 range
How it was run: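 Fluorescence (ex 485, em 535 nm) of cleaved ubiquitin-rhodamine 110 (25 nM, below Km) gave IC50 via 4-parameter logistic fit. Reaction: 45 min, room temperature, citric acid stop, after 30 min compound preincubation with 75 pM USP25-His6 in 20 mM Tris pH 8.0, 3 mM BME, 0.03% BGG, 0.01% Triton X-100; top dose 25 μM.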

Compound | IC50 [nM]
Cc1cnc2c(N)c(C(=O)N[C@H]3CCc4cc(N5CCNC[C@@H](O)C5)ccc4C3)sc2n1 (single isomer, unassigned) [Example 7-4] | 200 to 2000
Cc1cnc2c(N)c(C(=O)N[C@@H]3CCc4cc(N5CCNC[C@@H](O)C5)ccc4C3)sc2n1 (single isomer, unassigned) [Example 7-5] | 200 to 2000
Cc1cnc2c(N)c(C(=O)N[C@H]3CCc4cc(N5CCNC[C@H](O)C5)ccc4C3)sc2n1 (single isomer, unassigned) [Example 7-6] | > 2000
Cc1cnc2c(N)c(C(=O)N[C@@H]3CCc4cc(N5CCNC[C@H](O)C5)ccc4C3)sc2n1 (single isomer, unassigned) [Example 7-7] | > 2000
Cc1ccc2c(N)c(C(=O)N[C@H]3CCc4cc(N5CCN[C@H](CO)C5)ccc4C3)sc2n1 (single isomer, unassigned) [Example 7-8] | > 2000
Cc1ccc2c(N)c(C(=O)N[C@H]3CCc4cc(N5CCN[C@@H](CO)C5)ccc4C3)sc2n1 (single isomer, unassigned) [Example 7-9] | > 2000
Cc1ccc2c(N)c(C(=O)N[C@@H]3CCc4cc(N5CCN[C@H](CO)C5)ccc4C3)sc2n1 (single isomer, unassigned) [Example 7-10] | 200 to 2000
Cc1ccc2c(N)c(C(=O)N[C@@H]3CCc4cc(N5CCN[C@@H](CO)C5)ccc4C3)sc2n1 (single isomer, unassigned) [Example 7-11] | 200 to 2000
Cc1ccc2c(N)c(C(=O)N[C@H]3COc4cc(O[C@@H]5COC6(CNC6)C5)ccc4C3)sc2n1 (single isomer, unassigned) [Example 9-1] | 50 to 200
Cc1ccc2c(N)c(C(=O)N[C@H]3COc4cc(O[C@H]5COC6(CNC6)C5)ccc4C3)sc2n1 (single isomer, unassigned) [Example 9-2] | 50 to 200
CO[C@H]1CN(c2cc(F)c3c(c2)OC[C@H](NC(=O)c2sc4nc(C)ccc4c2N)C3)C[C@@H]1N (single isomer, unassigned) [Example 10-3] | 200 to 2000
Cc1nc2sc(C(=O)N[C@H]3CCc4cc(N5CC6CCC(C5)N6)ccc4C3)c(N)c2cc1F (single isomer, unassigned) [Example 11-3] | 200 to 2000
Cc1nc2sc(C(=O)N[C@@H]3CCc4cc(N5CC6CCC(C5)N6)ccc4C3)c(N)c2cc1F (single isomer, unassigned) [Example 11-4] | 50 to 200
COc1ccc2c(N)c(C(=O)N[C@H]3CCc4cc(N5CC6CCC(C5)N6)ccc4C3)sc2n1 (single isomer, unassigned) [Example 11-5] | 200 to 2000
COc1ccc2c(N)c(C(=O)N[C@@H]3CCc4cc(N5CC6CCC(C5)N6)ccc4C3)sc2n1 (single isomer, unassigned) [Example 11-6] | > 2000
Cc1cnc2c(N)c(C(=O)N[C@H]3CCc4cc(N5CC6CCC(C5)N6)ccc4C3)sc2n1 (single isomer, unassigned) [Example 11-7] | 200 to 2000
Cc1cnc2c(N)c(C(=O)N[C@@H]3CCc4cc(N5CC6CCC(C5)N6)ccc4C3)sc2n1 (single isomer, unassigned) [Example 11-8] | > 2000
CCn1ccc2cc(C(=O)N[C@H]3CCc4cc(N5CC6CCC(C5)N6)ccc4C3)cnc21 (single isomer, unassigned) [Example 11-9] | > 2000
CCn1ccc2cc(C(=O)N[C@@H]3CCc4cc(N5CC6CCC(C5)N6)ccc4C3)cnc21 (single isomer, unassigned) [Example 11-10] | 200 to 2000
Cc1ccc2c(N)c(C(=O)N[C@H]3CCc4cc(N5CCNCC5)cc(F)c4C3)sc2n1 (single isomer, unassigned) [Example 11-11] | > 2000
Cc1ccc2c(N)c(C(=O)N[C@@H]3CCc4cc(N5CCNCC5)cc(F)c4C3)sc2n1 (single isomer, unassigned) [Example 11-12] | 200 to 2000
Cc1cnc2c(N)c(C(=O)N[C@H]3CCc4cc(N5CC6CCC(C5)N6)cc(F)c4C3)sc2n1 (single isomer, unassigned) [Example 11-13] | > 2000
Cc1cnc2c(N)c(C(=O)N[C@@H]3CCc4cc(N5CC6CCC(C5)N6)cc(F)c4C3)sc2n1 (single isomer, unassigned) [Example 11-14] | 200 to 2000
Cc1ccc2c(N)c(C(=O)N[C@@H]3COc4cc(N5CCNCC5)ccc4[C@@H]3C)sc2n1 (single isomer, unassigned) [Example 11-18] | > 2000
CCn1ccc2cc(C(=O)N[C@@H]3CCc4cc(N5CC6CCC(C5)N6)ccc4C3)nnc21 (single isomer, unassigned) [Example 11-23] | > 2000
CCn1ccc2cc(C(=O)N[C@H]3CCc4cc(N5CC6CCC(C5)N6)ccc4C3)nnc21 (single isomer, unassigned) [Example 11-24] | > 2000

Same assay, conditions: Ubiquitin-Rhodamine 110 assay, format Example A-2; read-out: USP25 A-2 IC50 range

Compound | IC50 [nM]
Cc1ccc2c(N)c(C(=O)N[C@H]3CCc4cc(N5C6CNCC5C6)ccc4C3)sc2n1 (single isomer, unassigned) [Example 11-35] | 200 to 2000
Cc1ccc2c(N)c(C(=O)N[C@@H]3CCc4cc(N5C6CNCC5C6)ccc4C3)sc2n1 (single isomer, unassigned) [Example 11-36] | 200 to 2000
Cc1nc2sc(C(=O)N[C@H]3CCc4cc(N5CC6CCC(C5)N6)ccc4C3)c(N)c2s1 (single isomer, unassigned) [Example 12-1] | > 2000
Cc1ccc2c(N)c(C(=O)N[C@H]3COc4c(F)c(N5CC6CCC(C5)N6)cc(F)c4C3)sc2n1 (single isomer, unassigned) [Example 13-1] | 50 to 200
Cc1ccc2c(N)c(C(=O)N[C@@H]3COc4c(F)c(N5CC6CCC(C5)N6)cc(F)c4C3)sc2n1 (single isomer, unassigned) [Example 13-2] | > 2000
Cc1ccc2c(N)c(C(=O)N[C@@H]3COc4cc(N5CCNCC5)c(Cl)cc4C3)sc2n1 (single isomer, unassigned) [Example 13-6] | 50 to 200
Cc1nc2sc(C(=O)N[C@@H]3CCc4c(C#N)c(N5CC6CCC(C5)N6)cc(F)c4C3)c(N)c2s1 (single isomer, unassigned) [Example 14-22] | > 2000
Cc1ccc2c(N)c(C(=O)N[C@@H]3CCc4cc(N5CCNCC5)cnc4C3)sc2n1 (single isomer, unassigned) [Example 15-1] | > 2000
Cc1ccc2c(N)c(C(=O)N[C@H]3CCc4cc(N5CCNCC5)cnc4C3)sc2n1 (single isomer, unassigned) [Example 15-2] | > 2000
Cc1ccc2c(N)c(C(=O)N[C@@H]3CCc4c(ccc(N5CC6CCC(C5)N6)c4F)C3)sc2n1 (single isomer, unassigned) [Example 21-1] | > 2000
Cc1ccc2c(N)c(C(=O)N[C@H]3CCc4c(ccc(N5CC6CCC(C5)N6)c4F)C3)sc2n1 (single isomer, unassigned) [Example 21-2] | 200 to 2000
Cc1ccc2c(N)c(C(=O)N[C@@H]3CCc4cc(N5CC6CCC(C5)N6)c(F)cc4C3)sc2n1 (single isomer, unassigned) [Example 21-3] | 50 to 200
Cc1ccc2c(N)c(C(=O)N[C@H]3CCc4cc(N5CC6CCC(C5)N6)c(F)cc4C3)sc2n1 (single isomer, unassigned) [Example 21-4] | > 2000
Cc1ccc2c(N)c(C(=O)N[C@@H]3CCc4c(ccc(N5CCNCC5)c4F)C3)sc2n1 (single isomer, unassigned) [Example 21-5] | 50 to 200
Cc1ccc2c(N)c(C(=O)N[C@H]3CCc4c(ccc(N5CCNCC5)c4F)C3)sc2n1 (single isomer, unassigned) [Example 21-6] | > 2000
Cc1ccc2c(N)c(C(=O)N[C@@H]3CCc4cc(N5CCNCC5)c(F)cc4C3)sc2n1 (single isomer, unassigned) [Example 21-7] | 200 to 2000
Cc1ccc2c(N)c(C(=O)N[C@H]3CCc4cc(N5CCNCC5)c(F)cc4C3)sc2n1 (single isomer, unassigned) [Example 21-8] | > 2000
Cc1ccc2c(N)c(C(=O)N[C@H]3CCc4c(F)c(N5CCNCC5)cc(F)c4C3)sc2n1 (single isomer, unassigned) [Example 22-1] | > 2000
Cc1ccc2c(N)c(C(=O)N[C@@H]3CCc4c(F)c(N5CCNCC5)cc(F)c4C3)sc2n1 (single isomer, unassigned) [Example 22-2] | 50 to 200
